Results published in US20230210851A1, “SPIRO-LACTAM COMPOUNDS AND METHODS OF TREATING VIRAL INFECTIONS USING THE SAME” (Aptinyx Inc., priority 2020, published 2023).
Like-named read-outs stand apart in the source and are kept apart here.

Target: T1, 3CL Protease, MBP-tagged (SARS-CoV-2) (Severe acute respiratory syndrome coronavirus 2, UniProt P0DTD1)
T1 construct: The assay was performed using 3CL Protease, MBP-tagged (SARS-CoV-2) Assay kit; MBP; purchased BPS Biosciences 79955-2
Test: biochemical
Conditions: for activity at tested concentrations: tested concentrations 0.002-30 µM; for IC50: compound study, 10 point dose response curve

[1] = COVID-19 3CL Protease inhibitory activity at 30 µM compound, read-out: % Inhibition at 30 µM
[2] = read-out: % Inhibition at 30 µM, COVID-19 3CL Protease inhibitory activity at 30 µM compound
[3] = COVID-19 3CL Protease inhibitory activity at 30 µM compound, 30 µM
[4] = COVID-19 3CL Protease inhibitory activity at 30 µM compound
[5] = 30 µM concentration, approximate values, read-out: inhibition at 30 µM concentration

SMILES: O=C(CCl)N1CCN(Cc2ccc(F)cc2)C2(CCNC2=O)C1 (stereo not shown) [ET-107, 9-(2-chloroacetyl)-6-(4-fluorobenzyl)-2,6,9-triazaspiro[4.5]decan-1-one]
- inhibition at 30 µM [1]: 38%

SMILES: O=C(CI)N1CCN(Cc2ccccc2)C2(CCNC2=O)C1 (stereo not shown) [ET-109, 6-benzyl-9-(2-iodoacetyl)-2,6,9-triazaspiro[4.5]decan-1-one]
- inhibition at 30 µM [2]: 36%

SMILES: CCC(CC)OC(=O)C(C)NP(=O)(OCC(=O)N1CCN(Cc2ccccc2)C2(CCNC2=O)C1)Oc1ccccc1 (stereo not shown) [ET-117, Pentan-3-yl ((2-(6-benzyl-1-oxo-2,6,9-triazaspiro[4.5]decan-9-yl)-2-oxoethoxy)(phenoxy)phosphoryl)alaninate]
- % Inhibition at 30 µM [3]: 15%

SMILES: CCC(CC)OC(=O)[C@H](C)NP(=O)(OCC(=O)N1CCN(Cc2ccccc2)C2(CCNC2=O)C1)Oc1ccccc1 (stereo partly shown) [ET-119, Pentan-3-yl ((2-(6-benzyl-1-oxo-2,6,9-triazaspiro[4.5]decan-9-yl)-2-oxoethoxy)(phenoxy)phosphoryl)alaninate]
- inhibition at 30 µM [2]: 34%

SMILES: CC(=O)N1CCN(Cc2ccccc2)[C@@]2(CCNC2=O)C1 [ES-320]
- inhibition at 30 µM [2]: 0%
- activity at tested concentrations: inactive

SMILES: CC(Cl)C(=O)N1CCN(Cc2ccccc2)C2(CCNC2=O)C1 (stereo not shown) [ET-114, 6-benzyl-9-(2-chloropropanoyl)-2,6,9-triazaspiro[4.5]decan-1-one]
- % Inhibition at 30 µM [4]: 0%

SMILES: CCC(CC)OC(=O)C(C)NP(=O)(OCC(=O)N1CCN(Cc2ccccc2)C2(CCNC2=O)C1)Oc1ccccc1 (stereo not shown) [ET-115, Pentan-3-yl ((2-(6-benzyl-1-oxo-2,6,9-triazaspiro[4.5]decan-9-yl)-2-oxoethoxy)(phenoxy)phosphoryl)alaninate]
- % Inhibition at 30 µM [3]: 31%

SMILES: O=C(CCl)N1CCN(Cc2ccc(F)cc2)C2(CCNC2=O)C1 (single isomer, unassigned) [ET-108, 9-(2-chloroacetyl)-6-(4-fluorobenzyl)-2,6,9-triazaspiro[4.5]decan-1-one]
- inhibition at 30 µM [5]: ~84%
- inhibition at 30 µM [1]: 84%
- IC50: 6 µM

SMILES: O=C(CI)N1CCN(Cc2ccccc2)C2(CCNC2=O)C1 (stereo not shown) [ET-110, 6-benzyl-9-(2-iodoacetyl)-2,6,9-triazaspiro[4.5]decan-1-one]
- inhibition at 30 µM (read-out: inhibition at 30 µM concentration, 30 µM concentration, approximate values): ~47%

SMILES: O=C(CCl)N1CCN(Cc2ccccc2)[C@@]2(CCNC2=O)C1 [ET-103, 6-benzyl-9-(2-chloroacetyl)-2,6,9-triazaspiro[4.5]decan-1-one]
- inhibition at 30 µM [5]: ~44%
- inhibition at 30 µM [1]: 44%

SMILES: CC(Cl)C(=O)N1CCN(Cc2ccccc2)C2(CCNC2=O)C1 (stereo not shown) [ET-113, 6-benzyl-9-(2-chloropropanoyl)-2,6,9-triazaspiro[4.5]decan-1-one]
- % Inhibition at 30 µM [4]: 0%

SMILES: CC(Cl)C(=O)N1CCN(Cc2ccccc2)C2(CCNC2=O)C1 (stereo not shown) [ET-112, 6-benzyl-9-(2-chloropropanoyl)-2,6,9-triazaspiro[4.5]decan-1-one]
- % Inhibition at 30 µM [4]: 0%

SMILES: CC(Cl)C(=O)N1CCN(Cc2ccccc2)C2(CCNC2=O)C1 (stereo not shown) [ET-111, 6-benzyl-9-(2-chloropropanoyl)-2,6,9-triazaspiro[4.5]decan-1-one]
- inhibition at 30 µM [2]: 0%

SMILES: CCC(CC)OC(=O)C(C)NP(=O)(OCC(=O)N1CCN(Cc2ccccc2)C2(CCNC2=O)C1)Oc1ccccc1 (stereo not shown) [ET-118, Pentan-3-yl ((2-(6-benzyl-1-oxo-2,6,9-triazaspiro[4.5]decan-9-yl)-2-oxoethoxy)(phenoxy)phosphoryl)alaninate]
- % Inhibition at 30 µM [3]: 34%

SMILES: CCC(CC)OC(=O)C(C)NP(=O)(OCC(=O)N1CCN(Cc2ccccc2)C2(CCNC2=O)C1)Oc1ccccc1 (stereo not shown) [ET-116, Pentan-3-yl ((2-(6-benzyl-1-oxo-2,6,9-triazaspiro[4.5]decan-9-yl)-2-oxoethoxy)(phenoxy)phosphoryl)alaninate]
- % Inhibition at 30 µM [3]: 28%

SMILES: CCC(CC)OC(=O)[C@H](C)NP(=O)(OCC(=O)N1CCN(Cc2ccccc2)C2(CCNC2=O)C1)Oc1ccccc1 (stereo partly shown) [ET-120, Pentan-3-yl ((2-(6-benzyl-1-oxo-2,6,9-triazaspiro[4.5]decan-9-yl)-2-oxoethoxy)(phenoxy)phosphoryl)alaninate]
- % Inhibition at 30 µM [3]: 30%

SMILES: CC(=O)N1CCN(Cc2ccccc2)[C@]2(CCNC2=O)C1 [ES-319]
- inhibition at 30 µM [2]: 0%
- activity at tested concentrations: inactive

SMILES: O=C(CCl)N1CCN(Cc2ccccc2)[C@]2(CCNC2=O)C1 [ET-104, 6-benzyl-9-(2-chloroacetyl)-2,6,9-triazaspiro[4.5]decan-1-one]
- inhibition at 30 µM [5]: ~92%
- inhibition at 30 µM [1]: 92%
- IC50: 11.5 µM
